Biological target: IKZF2 (Homo sapiens (Human), UniProt Q96SW2+Q9UKS7)
Test: IKZF2 HiBiT Assay (Jurkat-IKZF2-HiBiT cell line)
Type: cell-based
Conditions: Jurkat-IKZF2-HiBiT cells, 24 hours; for DC50: read-out: HiBit assay degradation analysis DC50; for Dmax: read-out: HiBit assay degradation analysis Dmax
How it was run: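 Jurkat cells carrying HiBiT-tagged IKZF2 were exposed to serially diluted compound for 24 h at 37 °C. Remaining IKZF2 was measured by Nano-Glo HiBiT lytic luminescence after 10-20 min at room temperature. Signal was normalized to DMSO, and IC50 came from a four-parameter variable-slope fit.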

Sequence of IKZF2 (Q9UKS7 whole entry): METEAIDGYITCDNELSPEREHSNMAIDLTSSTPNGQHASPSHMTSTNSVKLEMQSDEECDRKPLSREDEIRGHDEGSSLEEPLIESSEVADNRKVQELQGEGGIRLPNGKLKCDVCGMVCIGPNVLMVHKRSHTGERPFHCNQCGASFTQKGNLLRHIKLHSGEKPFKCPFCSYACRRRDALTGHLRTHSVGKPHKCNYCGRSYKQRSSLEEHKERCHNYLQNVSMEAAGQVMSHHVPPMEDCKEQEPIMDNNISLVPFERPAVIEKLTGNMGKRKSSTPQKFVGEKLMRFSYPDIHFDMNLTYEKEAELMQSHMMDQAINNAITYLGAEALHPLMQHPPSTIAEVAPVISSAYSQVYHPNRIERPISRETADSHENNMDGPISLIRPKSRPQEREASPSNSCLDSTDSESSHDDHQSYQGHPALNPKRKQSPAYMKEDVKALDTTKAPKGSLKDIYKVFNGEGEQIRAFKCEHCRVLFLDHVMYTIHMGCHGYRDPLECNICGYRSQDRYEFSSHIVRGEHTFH
Sequence of IKZF2 (Q96SW2 whole entry): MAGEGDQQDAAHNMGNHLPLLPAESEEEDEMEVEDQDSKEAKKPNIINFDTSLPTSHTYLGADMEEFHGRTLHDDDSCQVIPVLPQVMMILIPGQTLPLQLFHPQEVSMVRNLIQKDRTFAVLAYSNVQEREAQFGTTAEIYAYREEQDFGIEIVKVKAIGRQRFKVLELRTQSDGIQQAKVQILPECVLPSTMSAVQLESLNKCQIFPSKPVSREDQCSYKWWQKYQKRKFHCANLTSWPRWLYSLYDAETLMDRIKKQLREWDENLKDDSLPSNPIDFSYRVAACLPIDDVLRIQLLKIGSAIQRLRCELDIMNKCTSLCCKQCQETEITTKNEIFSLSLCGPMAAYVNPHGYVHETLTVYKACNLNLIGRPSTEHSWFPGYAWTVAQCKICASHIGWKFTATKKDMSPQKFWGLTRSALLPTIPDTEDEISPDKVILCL
Sequence of IKZF2 (Q16531 whole entry partner): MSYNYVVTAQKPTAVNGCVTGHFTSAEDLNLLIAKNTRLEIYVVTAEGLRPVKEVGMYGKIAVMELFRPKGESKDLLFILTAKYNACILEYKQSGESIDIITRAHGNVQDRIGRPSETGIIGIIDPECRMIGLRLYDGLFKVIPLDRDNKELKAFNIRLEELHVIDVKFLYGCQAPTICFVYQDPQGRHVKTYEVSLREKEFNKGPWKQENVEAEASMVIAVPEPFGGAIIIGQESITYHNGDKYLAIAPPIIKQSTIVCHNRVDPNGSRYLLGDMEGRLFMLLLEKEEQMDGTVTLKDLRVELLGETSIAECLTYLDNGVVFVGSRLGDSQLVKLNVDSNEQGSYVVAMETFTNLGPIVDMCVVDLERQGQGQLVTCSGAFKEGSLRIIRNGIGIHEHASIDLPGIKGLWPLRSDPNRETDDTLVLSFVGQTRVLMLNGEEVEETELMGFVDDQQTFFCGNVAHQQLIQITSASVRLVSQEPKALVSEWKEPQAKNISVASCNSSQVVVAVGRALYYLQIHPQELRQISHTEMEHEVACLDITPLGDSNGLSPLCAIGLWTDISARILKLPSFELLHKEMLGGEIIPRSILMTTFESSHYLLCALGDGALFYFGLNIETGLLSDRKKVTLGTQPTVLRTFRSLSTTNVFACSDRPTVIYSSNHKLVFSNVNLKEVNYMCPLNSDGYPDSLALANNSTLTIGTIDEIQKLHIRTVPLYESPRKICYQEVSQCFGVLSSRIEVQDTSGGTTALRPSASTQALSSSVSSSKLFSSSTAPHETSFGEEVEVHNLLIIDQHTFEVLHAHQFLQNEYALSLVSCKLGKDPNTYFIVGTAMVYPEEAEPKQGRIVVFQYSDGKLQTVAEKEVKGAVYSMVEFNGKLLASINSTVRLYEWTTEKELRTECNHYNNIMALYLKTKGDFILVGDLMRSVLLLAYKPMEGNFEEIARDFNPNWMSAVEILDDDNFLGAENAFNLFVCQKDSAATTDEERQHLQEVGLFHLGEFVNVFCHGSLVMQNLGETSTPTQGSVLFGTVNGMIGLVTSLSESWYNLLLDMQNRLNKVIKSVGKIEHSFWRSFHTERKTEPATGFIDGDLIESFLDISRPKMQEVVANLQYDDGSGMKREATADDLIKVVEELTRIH

Row | Compound | DC50 [µM] | Dmax [%]
1 | O=C1CC[C@H](N2Cc3c(ccc4c3OCC43CCN(Cc4cccc(-c5cnn(C[C@@H]6COCCO6)c5)c4)CC3)C2=O)C(=O)N1 [Compound A272, (S)-3-(1′-(3-(1-(((R)-1,4-dioxan-2-yl)methyl)-1H-pyrazol-4-yl)benzyl)-6-oxo-6,8-dihydro-2H,7H-spiro[furo[2,3-e]isoindole-3,4′-piperidin]-7-yl)piperidine-2,6-dione] | 0.05 to 0.2 | 60 to 80
2 | O=C1CC[C@H](N2Cc3c(ccc4c3OCC43CCN(Cc4cccc(-c5cnn(C[C@H]6CCO6)c5)c4)CC3)C2=O)C(=O)N1 [Compound A273, (S)-3-(1′-(3-(1-(((R)-oxetan-2-yl)methyl)-1H-pyrazol-4-yl)benzyl)-6-oxo-6,8-dihydro-2H,7H-spiro[furo[2,3-e]isoindole-3,4′-piperidin]-7-yl)piperidine-2,6-dione] | 0.05 to 0.2 | 60 to 80
3 | O=C1CC[C@H](N2Cc3c(ccc4c3OCC43CCN(Cc4cccc(-c5cnn(C[C@@H]6CCO6)c5)c4)CC3)C2=O)C(=O)N1 [Compound A274, (S)-3-(1′-(3-(1-(((S)-oxetan-2-yl)methyl)-1H-pyrazol-4-yl)benzyl)-6-oxo-6,8-dihydro-2H,7H-spiro[furo[2,3-e]isoindole-3,4′-piperidin]-7-yl)piperidine-2,6-dione] | 0.05 to 0.2 | 60 to 80
4 | O=C1CC[C@H](N2Cc3c(ccc4c3OCC43CCN(C4Cc5ccccc5C4)CC3)C2=O)C(=O)N1 [Compound A275, (S)-3-(1′-(2,3-dihydro-1H-inden-2-yl)-6-oxo-6,8-dihydro-2H,7H-spiro[furo[2,3-e]isoindole-3,4′-piperidin]-7-yl)piperidine-2,6-dione] | > 0.5 | 40 to 60
5 | O=C1CC[C@H](N2Cc3c(ccc4c3OCC43CCN(Cc4cc(F)cc(-c5cnn(C6COC6)c5)c4)CC3)C2=O)C(=O)N1 [Compound A276, (S)-3-(1′-(3-fluoro-5-(1-(oxetan-3-yl)-1H-pyrazol-4-yl)benzyl)-6-oxo-6,8-dihydro-2H,7H-spiro[furo[2,3-e]isoindole-3,4′-piperidin]-7-yl)piperidine-2,6-dione] | < 0.05 | 40 to 60
6 | COc1cc(CN2CCC3(CC2)COc2c3ccc3c2CN([C@H]2CCC(=O)NC2=O)C3=O)cc(-c2cnn(C3COC3)c2)c1 [Compound A277] | < 0.05 | > 80
7 | O=C1CC[C@H](N2Cc3c(ccc4c3OCC43CCN(Cc4cccc(NC(=O)C(F)(F)F)c4)CC3)C2=O)C(=O)N1 [Compound A278, (S)-N-(3-((7-(2,6-dioxopiperidin-3-yl)-6-oxo-7,8-dihydro-2H,6H-spiro[furo[2,3-e]isoindole-3,4′-piperidin]-1′-yl)methyl)phenyl)-2,2,2-trifluoroacetamide] | < 0.05 | > 80
8 | Cc1cc(CN2CCC3(CC2)COc2c3ccc3c2CN([C@H]2CCC(=O)NC2=O)C3=O)cc(-c2cnn(C3COC3)c2)c1 [Compound A279, (S)-3-(1′-(3-methyl-5-(1-(oxetan-3-yl)-1H-pyrazol-4-yl)benzyl)-6-oxo-6,8-dihydro-2H,7H-spiro[furo[2,3-e]isoindole-3,4′-piperidin]-7-yl)piperidine-2,6-dione] | < 0.05 | 60 to 80
9 | COc1cc(CN2CCC3(CC2)COc2c3ccc3c2CN([C@H]2CCC(=O)NC2=O)C3=O)cc(-c2cnn(C)c2)c1 [Compound A280, (S)-3-(1′-(3-methoxy-5-(1-methyl-1H-pyrazol-4-yl)benzyl)-6-oxo-6,8-dihydro-2H,7H-spiro[furo[2,3-e]isoindole-3,4′-piperidin]-7-yl)piperidine-2,6-dione] | < 0.05 | > 80
10 | O=C1CC[C@H](N2Cc3c(ccc4c3OCC43CCN(Cc4cccc(-c5cnn(C(F)F)c5)c4)CC3)C2=O)C(=O)N1 [Compound A281, (S)-3-(1′-(3-(1-(difluoromethyl)-1H-pyrazol-4-yl)benzyl)-6-oxo-6,8-dihydro-2H,7H-spiro[furo[2,3-e]isoindole-3,4′-piperidin]-7-yl)piperidine-2,6-dione] | < 0.05 | > 80
11 | O=C1CC[C@H](N2Cc3c(ccc4c3OCC43CCN(Cc4cccc(-c5cnn(C(F)(F)F)c5)c4)CC3)C2=O)C(=O)N1 [Compound A282, (S)-3-(6-oxo-1′-(3-(1-(trifluoromethyl)-1H-pyrazol-4-yl)benzyl)-6,8-dihydro-2H,7H-spiro[furo[2,3-e]isoindole-3,4′-piperidin]-7-yl)piperidine-2,6-dione] | < 0.05 | 60 to 80
12 | Cc1nn(C)cc1-c1cccc(CN2CCC3(CC2)COc2c3ccc3c2CN([C@H]2CCC(=O)NC2=O)C3=O)c1 [Compound A283, (S)-3-(1′-(3-(1,3-dimethyl-1H-pyrazol-4-yl)benzyl)-6-oxo-6,8-dihydro-2H,7H-spiro[furo[2,3-e]isoindole-3,4′-piperidin]-7-yl)piperidine-2,6-dione] | 0.05 to 0.2 | 60 to 80
13 | Cc1c(-c2cccc(CN3CCC4(CC3)COc3c4ccc4c3CN([C@H]3CCC(=O)NC3=O)C4=O)c2)cnn1C [Compound A284, (S)-3-(1′-(3-(1,5-dimethyl-1H-pyrazol-4-yl)benzyl)-6-oxo-6,8-dihydro-2H,7H-spiro[furo[2,3-e]isoindole-3,4′-piperidin]-7-yl)piperidine-2,6-dione] | < 0.05 | 60 to 80
14 | O=C1CC[C@H](N2Cc3c(ccc4c3OCC43CCN(Cc4ccc5cn(C6COC6)nc5c4)CC3)C2=O)C(=O)N1 [Compound A285, (S)-3-(1′-((2-(oxetan-3-yl)-2H-indazol-6-yl)methyl)-6-oxo-6,8-dihydro-2H,7H-spiro[furo[2,3-e]isoindole-3,4′-piperidin]-7-yl)piperidine-2,6-dione] | < 0.05 | 60 to 80
15 | COCCn1cc(-c2cccc(CN3CCC4(CC3)COc3c4ccc4c3CN([C@H]3CCC(=O)NC3=O)C4=O)c2)cn1 [Compound A286, (S)-3-(1′-(3-(1-(2-methoxyethyl)-1H-pyrazol-4-yl)benzyl)-6-oxo-6,8-dihydro-2H,7H-spiro[furo[2,3-e]isoindole-3,4′-piperidin]-7-yl)piperidine-2,6-dione] | 0.05 to 0.2 | 60 to 80
16 | COCCn1cc2ccc(CN3CCC4(CC3)COc3c4ccc4c3CN([C@H]3CCC(=O)NC3=O)C4=O)cc2n1 [Compound A287, (S)-3-(1′-((2-(2-methoxyethyl)-2H-indazol-6-yl)methyl)-6-oxo-6,8-dihydro-2H,7H-spiro[furo[2,3-e]isoindole-3,4′-piperidin]-7-yl)piperidine-2,6-dione] | < 0.05 | 60 to 80
17 | O=C1CC[C@H](N2Cc3c(ccc4c3OCC43CCN(Cc4ccc5cn(C(F)F)nc5c4)CC3)C2=O)C(=O)N1 [Compound A288, (S)-3-(1′-((2-(difluoromethyl)-2H-indazol-6-yl)methyl)-6-oxo-6,8-dihydro-2H,7H-spiro[furo[2,3-e]isoindole-3,4′-piperidin]-7-yl)piperidine-2,6-dione] | < 0.05 | 60 to 80
18 | O=C1CC[C@H](N2Cc3c(ccc4c3OCC43CCN(Cc4cccc(-c5ccn(C(F)F)n5)c4)CC3)C2=O)C(=O)N1 [Compound A289, (S)-3-(1′-(3-(1-(difluoromethyl)-1H-pyrazol-3-yl)benzyl)-6-oxo-6,8-dihydro-2H,7H-spiro[furo[2,3-e]isoindole-3,4′-piperidin]-7-yl)piperidine-2,6-dione] | < 0.05 | 60 to 80
19 | O=C1CC[C@H](N2Cc3c(ccc4c3OCC43CCN(Cc4cccc(-c5cc[nH]n5)c4)CC3)C2=O)C(=O)N1 [Compound A290, (S)-3-(1′-(3-(1H-pyrazol-3-yl)benzyl)-6-oxo-6,8-dihydro-2H,7H-spiro[furo[2,3-e]isoindole-3,4′-piperidin]-7-yl)piperidine-2,6-dione] | < 0.05 | 60 to 80
20 | [2H]C([2H])([2H])n1cc(-c2cccc(CN3CCC4(CC3)COc3c4ccc4c3CN([C@H]3CCC(=O)NC3=O)C4=O)c2)cn1 [Compound A291, (S)-3-(1′-(3-(1-(methyl-d3)-1H-pyrazol-4-yl)benzyl)-6-oxo-6,8-dihydro-2H,7H-spiro[furo[2,3-e]isoindole-3,4′-piperidin]-7-yl)piperidine-2,6-dione] | < 0.05 | 60 to 80
21 | CC(C)(O)Cn1cc(-c2cccc(CN3CCC4(CC3)COc3c4ccc4c3CN([C@H]3CCC(=O)NC3=O)C4=O)c2)cn1 [Compound A292, (S)-3-(1′-(3-(1-(2-hydroxy-2-methylpropyl)-1H-pyrazol-4-yl)benzyl)-6-oxo-6,8-dihydro-2H,7H-spiro[furo[2,3-e]isoindole-3,4′-piperidin]-7-yl)piperidine-2,6-dione] | < 0.05 | 60 to 80
22 | O=C1CC[C@H](N2Cc3c(ccc4c3OCC43CCN(Cc4cccc(-c5cnn(CCF)c5)c4)CC3)C2=O)C(=O)N1 [Compound A293, (S)-3-(1′-(3-(1-(2-fluoroethyl)-1H-pyrazol-4-yl)benzyl)-6-oxo-6,8-dihydro-2H,7H-spiro[furo[2,3-e]isoindole-3,4′-piperidin]-7-yl)piperidine-2,6-dione] | < 0.05 | 60 to 80
23 | COCn1cc(-c2cccc(CN3CCC4(CC3)COc3c4ccc4c3CN([C@H]3CCC(=O)NC3=O)C4=O)c2)cn1 [Compound A294, (S)-3-(1′-(3-(1-(methoxymethyl)-1H-pyrazol-4-yl)benzyl)-6-oxo-6,8-dihydro-2H,7H-spiro[furo[2,3-e]isoindole-3,4′-piperidin]-7-yl)piperidine-2,6-dione] | < 0.05 | 60 to 80
24 | Cc1c2ccc(CN3CCC4(CC3)COc3c4ccc4c3CN([C@H]3CCC(=O)NC3=O)C4=O)cc2nn1C [Compound A295, (S)-3-(1′-((2,3-dimethyl-2H-indazol-6-yl)methyl)-6-oxo-6,8-dihydro-2H,7H-spiro[furo[2,3-e]isoindole-3,4′-piperidin]-7-yl)piperidine-2,6-dione] | < 0.05 | 60 to 80
